Experimental data published in patent US20060047171A1, “Catalytic hydrogenation of nitriles to produce capsaicinoid derivatives and amine compounds, and methods for purifying and obtaining the polymorphs thereof” (priority 2003, published 2006).
“Also recorded” adds a separate entry of the source. Read-outs that look alike come from different tables or passages of the source.

Experiments:
[1] = Qualitative solubility of DA-5018 in common solvents; assay type: physicochemical
Procedure: In order to show which solvents or solvent/antisolvent combinations are appropriate for crystallization studies, the solubility of DA-5018 in twelve solvents was qualitatively evaluated on a 500 mg-scale. In these experiments, DA-5018 was suspended in 5 volumes of the appropriate solvent and stirred at ambient temperature, then incrementally heated until a complete solubilization was achieved.

[2] = Solubility curve / metastable zone width in methanol/water (1:1.25, v/v); assay type: physicochemical
Procedure: A standard procedure to determine the width of the metastable zone was used to determine the solubility curves of DA-5018 in methanol/water (1:1.25, v/v). In this procedure, DA-5018 (2.0 g) was suspended in 15 mL (7.5 vol) of methanol/water (1:1.25, v/v) and heated until all solids were dissolved (approximately 55° C.). The resulting solution was then very slowly cooled at a fixed rate of 0.2° C./min and the nucleation temperature recorded. The mixture was slowly reheated and the temperature of complete dissolution recorded. The solution was then iteratively diluted with a known volume of solvent and the nucleation as well as the dissolution points recorded at gradually lower concentrations to provide additional data points on the saturation curve as well as on the solubility curve. By definition, for a given concentration, the distance between the solubility curve and the saturation curve provides the metastable zone width (MSZW), in which crystal growth can be achieved upon careful seeding and controlled cooling, antisolvent addition, evaporation or pH adjustment, depending on the chosen crystallization conditions. Such a protocol is often crucial in maximizing crystal growth and curbing spontaneous, secondary nucleation that leads to uncontrolled crystallization.

[3] = tested on: yeast induced hyperalgesia; assay: Randall-Selitto test; assay type: in vivo, rat; conditions: rats, pain threshold of yeast-injected foot
Procedure: Randall-Selitto Test was carried out by following the method described in Arch. Int.
Male albino rats (120-170 g) of the Charles River Sprague-Dawley strain are used. Inflammation is produced by the injection of 0.1 mL of a 20% suspension of Brewer's yeast into the plantar surface of the rat's hind foot.
The pain threshold is measured as the pressure in mm Hg required to induce the desired response (a sharp audible squeak and/or struggle) when the pressure is applied to the foot. Air pressure from an air line is admitted through a needle valve to a 20 mL glass syringe and to a pressure gauge connected by a T-tube. The syringe is mounted with the plunger downward to which is connected a short bullet-shaped Teflon peg. The pressure is applied to the foot of the rat at the rate of 10 mmHg per second. Drug is given 2 hours after the yeast injection. Two hours after the drug administration, threshold response is determined.
The analgesic activity was determined in terms of the percentage of inhibition of response: Inhibition (%)=(TTG−TCG)/TCG×100, where TTG is the Threshold of Treated Group, and TCG is the Threshold of the Control Group.

[4] = Thermal stress experiments (DSC and XRPD), interconversion of forms; assay type: physicochemical
Procedure: To further evaluate these observations, DSC thermograms were obtained for select compounds at various ramping rates to evaluate interconversion of forms, as shown in FIGS. 2(a)-2(c) and 3(a)-3(c). FIGS. 2(a)-2(c) show the conversion of Form I to Form II. The conversion is most readily observed in FIG. 2(a), as conversion was more difficult to observe at the faster ramp rates. […] Additionally, isothermal heating experiments were performed with evaluation by DSC and XRPD to confirm any change of form, as shown in FIGS. 2(d)-2(f) and 3(d)-(f) and Table 3. FIGS. 2(e) and 3(e) show the original XRPD for Forms I and IV, respectively, while FIGS. 2(f) and 3(f) show the XRPD of Form II, formed after thermal conversion.

[5] = Hygroscopicity by dynamic vapor sorption (DVS); assay type: physicochemical; conditions: for hygroscopicity (in words): DVS, conditions up to 90% RH
Procedure: Dynamic vapor sorption analysis (DVS) was at times performed on the sample “as is”. Samples were placed in sample pan and underwent a 2-hour drying in a dry nitrogen stream. The samples were then analyzed under the following conditions:
Isothermal Sequence: • Adsorption: 10-90% RH; step size 10% • Desorption: 85-0% RH; step size 10%
Each RH point was obtained after the weight loss curve reached an asymptote. After the isotherm was complete, the sample was heated to 80° C. until the weight loss curve reached an asymptote or for 4 hours maximum.
Hygroscopicity studies were conducted by DVS on both the original Form I (FIG. 4) and the thermally converted Form II (FIG. 5) of DA-5018. […] In an attempt to further evaluate the physical form of the dihydrate, a second sample of DA-5018 was converted to the dihydrate by exposing the material to 85% RH overnight in the DVS instrument.

[6] = tested on: tail flick response to radiant heat; conditions: cited from earlier work; for Inhibition (%): mice
[7] = tested on: adjuvant induced hyperalgesia; conditions: 5 mg/Kg; rats; DA-5018 perorally two hours before tail-pinch testing; cited from earlier work

COc1cc(CC(=O)NCCCc2ccc(C)c(C)c2)ccc1OCCN [DA-5018, 2-[4-(2-aminoethoxy)-3-methoxyphenyl]-N-[3-(3,4-dimethylphenyl)propyl]acetamide]
solubility (in words) ([1]; MEK, MIBK, EtOAc, IPAc and acetonitrile): sparingly soluble | solubility (in words) ([1]; methanol at 50° C.): freely soluble | solubility (in words) ([1]; methyl tert-butyl ether (MTBE), even at reflux): limited solubility | DA-5018 Solubility Trend ([1]; ranking of solvents, 500 mg-scale, 5 volumes of solvent, ambient temperature then incrementally heated): Acetone >> Methanol > THF > Ethanol, 1-Propanol > 2-; also recorded: Propanol> MEK > MIBK > CH3CN, EtOAc, IPAc >> MTBE >>> Water | Nucleation Temperature (° C.) ([2]; 2.0 g DA-5018 in 15 mL methanol/water (1:1.25, v/v), cooled at 0.2° C./min): 39.1 °C | Nucleation Temperature (° C.) ([2]; 2.0 g DA-5018 in 20 mL methanol/water (1:1.25, v/v)): 34.6 °C | Nucleation Temperature (° C.) ([2]; 2.0 g DA-5018 in 25 mL methanol/water (1:1.25, v/v)): 34.5 °C | Nucleation Temperature (° C.) ([2]; 2.0 g DA-5018 in 30 mL methanol/water (1:1.25, v/v)): 34.2 °C | Inhibition (%) ([3]; 5 mg/Kg p. o.): 247.4%

COc1cc(CC(=O)NCCCc2ccc(C)c(C)c2)ccc1OCCN [Form I, 2-[4-(2-aminoethoxy)-3-methoxyphenyl]-N-[3-(3,4-dimethylphenyl)propyl]acetamide]
conversion of form under thermal conditions (in words) ([4]; 10 minutes of isothermal heating near melting point, 105° C.): convert to Form II | hygroscopicity (in words) [5]: propensity to absorb moisture | relative humidity at which moisture is taken up ([5]; less crystalline, or amorphous, samples): approximately 30 % RH

COc1cc(CC(=O)NCCCc2ccc(C)c(C)c2)ccc1OCCN [Form IV, 2-[4-(2-aminoethoxy)-3-methoxyphenyl]-N-[3-(3,4-dimethylphenyl)propyl]acetamide]
conversion of form under thermal stress / melt (in words) ([4]; DSC at various ramping rates, melt): conversion of Form IV to Form II

COc1cc(CC(=O)NCCCc2ccc(C)c(C)c2)ccc1OCCN [Form II, 2-[4-(2-aminoethoxy)-3-methoxyphenyl]-N-[3-(3,4-dimethylphenyl)propyl]acetamide]
moisture retention upon desorption (in words) ([5]; DVS desorption): did not retain moisture upon desorption | hygroscopicity (in words) [5]: non-hygroscopic; also recorded: no appreciable hygroscopicity

CC(=O)Oc1ccccc1C(=O)O [Aspirin]
Inhibition (%) ([3]; 100 mg/Kg s. c.): 80.1% | Inhibition (%) ([6]; 100 mg/Kg p. o.): 0%

CN1CC[C@]23c4c5ccc(O)c4O[C@H]2[C@@H](O)C=C[C@H]3[C@H]1C5 [Morphine]
Inhibition (%) ([3]; 3 mg/Kg s. c.): 391.7% | activity in the tail flick test (in words) ([6]; mouse, in vivo): active

CCCCCCCC/C=C\CCCCCCCC(=O)NCc1ccc(OCCN)c(OC)c1 [NE-21610]
Inhibition (%) ([6]; 200 mg/Kg p. o.): 50%

CN1C(C(=O)Nc2ccccn2)=C(O)c2ccccc2S1(=O)=O [Piroxicam]
Inhibition (%) ([6]; 100 mg/Kg p. o.): 0%

COc1cc(CNC(=O)CCCC/C=C/C(C)C)ccc1O [Capsaicin, trans-8-methyl-N-vanillyl-6-nonenamide]
Inhibition (%) ([6]; 25 mg/Kg, route not given): 90%

3-(3,4-Dimethylphenyl)acrylonitrile [Example 1]
Inhibition (%) ([6]; 0.5 mg/Kg s. c.): 50% | Inhibition (%) ([6]; 1.0 mg/Kg s. c.): 70%

COc1ccc2cc([C@H](C)C(=O)O)ccc2c1 [Naproxen]
Analgesic activity (%) [7]: 28.6%

COc1cc(CC(=O)NCCCc2ccc(C)c(C)c2)ccc1OCCN [Form III, 2-[4-(2-aminoethoxy)-3-methoxyphenyl]-N-[3-(3,4-dimethylphenyl)propyl]acetamide]
relative humidity to which the dihydrate is stable upon desorption ([5]; DVS desorption): ≥ 30 % RH
